In patent publication US20130078224A1, “INDUCTION/MONITORING OF ARTERIOGENESIS USING SDF1 AND PDGFB OR INHIBITION OF PHD2” (LIFE SCIENCES RESEARCH PARTNERS VZW, priority 2010, published 2013):

Experiments:
PDGFB, SDF1, and Tie2 = assay: Gene expression (qRT-PCR) in PHD2Rosa26CreERT;lox/wt peritoneal macrophages after 4-OHT; type: cell-based, mice; settings: 2 μM, 48 hours
Method: Macrophage Preparation: To harvest peritoneal macrophages (pMØ), the peritoneal cavity was washed with 5 ml of RPMI 10% FBS. The pooled cells were then seeded in RPMI 10% FBS in six-well plates (2×10^6 cells/well), twelve-well plates (1×10^6 cells/well), or 24-well plates (5×10^5 cells/well). After six hours of incubation at 37° C. in a moist atmosphere of 5% CO2 and 95% air, non-adhering cells on each plate were removed by rinsing with phosphate-buffered saline (PBS). The attached macrophages were cultured in different mediums for 12 hours or 48 hours, depending on the experiments performed, as described below. When high amounts of cells were needed (analysis for HIF accumulation and NF-κB activity), macrophages were derived from bone marrow precursors as described before (Meerpohl et al., Eur. J. Immuno. 6:213-7, 1976). Briefly, bone marrow cells (2×10^6 cells/ml) were cultured in a volume of 5 ml in a 10 cm Petri dish (non-tissue culture-treated, bacterial grade) for ten days in DMEM supplemented with 20% FBS and 30% L929 conditioned medium as a source of M-CSF. The cells obtained in those cultures are uniformly macrophages. […]
Quantitative PCR Analysis: In order to investigate gene expression in pMØ, quantitative RT-PCR (qRT-PCR) was performed. […] Quantitative RT-PCR was perfouned with commercially available or homemade primers and probes for the studied genes. […]

F4/80+Tie2+ cells = assay: Deletion of TEMs by GCV in Tie2:tk-BMT mice (F4/80 and Tie2 double staining of adductor); type: in vivo; settings: GCV 50 mg/kg daily
[1] = tested on: secondary and tertiary collateral arteries; assay: Collateralization and ischemic necrosis in Tie2:tk-BMT mice after GCV; type: in vivo; settings: PHD2+/- Tie2:tk-BMT mice
[2] = early clinical trials in myocardial infarction; cited from earlier work
NF-κB [3] = assay: NF-κB-responsive firefly luciferase reporter assay in bone marrow-derived macrophages; type: cell-based, mice; settings: PHD2 haplodeficient vs WT macrophages
Method: Transduction and Transfection of Bone Marrow-Derived Macrophages and Lung Endothelial Cells: To express an inducible NF-κB responsive firefly luciferase reporter, commercially available lentiviral vector particles (LV) were used (Cignal Lenti NF-κB Reporter; SABiosciences). 2.5×10^5 bone marrow-derived macrophages and 10^5 primary lung endothelial cells (isolated as previously described (Mazzone et al., 2009, see above)) were seeded in a 24-well plate in DMEM 10% FBS or M199 20% FBS for eight hours. Cells were transduced with 10^8 TU/ml. Eight hours after transduction, the medium wash was replaced. After 48 hours, cells were stimulated with TNFα (20 ng/mL) for eight hours and the same amount of protein extract was read in a luminometer. For PHD3 silencing, siRNA oligonucleotides were designed using the Invitrogen online siRNA design tool (world wide web at maidesigner.invitrogen.com). The following sequences (sense strands) and target positions were used: PHD3 siRNA: 5′-[…]-3′ (SEQ ID NO:1); scramble siRNA:5′-[…]-3′ (SEQ ID NO:2). In brief, one day after the transduction of macrophages with LV, cells were transfected using Lipofectamine 2000 (Invitrogen) according to the manufacturer's instructions. Preparation of the oligonucleotide-Lipofectamine 2000 complexes was done as followed: 25 pmol siRNA oligonucleotide (stock: 20 μM) was diluted in 50 μl Opti-MEM I reduced serum medium. Lipofectamine 2000 (1.5 μl) was diluted in 50 μl Opti-MEM I reduced serum medium and incubated for five minutes at room temperature. siRNA oligonucleotides were gently mixed with Lipofectamine 2000 and allowed to incubate at room temperature for twenty minutes to form complexes. Just before transfection, the cell culture medium was removed and cells were rinsed twice with serum-free Opti-MEM I medium. The Lipofectamine 2000-siRNA oligonucleotide complexes were added to each well in 400 μl of serum-free Opti-MEM medium for five hours. Afterwards, cells were incubated in complete medium for 48 hours at 37° C. in a CO2 incubator and assayed for gene knockdown (qRT-PCR) and luciferase activity. To assess if the increased NFkB activity observed in PHD2^+/− macrophages was dependent on the hydroxylase activity of PHD2, 48 hours before transduction, 4×10^6 bone marrow-derived macrophages were resuspended in 240 μl of Opti-MEM and were electroporated (250 V, 950 uF, ∝ Ω) with 7 μg of plasmids expressing a wild-type PHD2 (PHD2^wt) or a PHD2 containing a mutation at the catalytic site (PHD2^H313A).

NF-κB [4] = assay: NF-κB-responsive luciferase reporter assay in primary lung endothelial cells; type: cell-based, mice; settings: WT and PHD2+/- ECs, TNF-α 20 ng/mL, eight hours
Method: Transduction and Transfection of Bone Marrow-Derived Macrophages and Lung Endothelial Cells: To express an inducible NF-κB responsive firefly luciferase reporter, commercially available lentiviral vector particles (LV) were used (Cignal Lenti NF-κB Reporter; SABiosciences). 2.5×10^5 bone marrow-derived macrophages and 10^5 primary lung endothelial cells (isolated as previously described (Mazzone et al., 2009, see above)) were seeded in a 24-well plate in DMEM 10% FBS or M199 20% FBS for eight hours. Cells were transduced with 10^8 TU/ml. Eight hours after transduction, the medium wash was replaced. After 48 hours, cells were stimulated with TNFα (20 ng/mL) for eight hours and the same amount of protein extract was read in a luminometer. For PHD3 silencing, siRNA oligonucleotides were designed using the Invitrogen online siRNA design tool (world wide web at maidesigner.invitrogen.com). The following sequences (sense strands) and target positions were used: PHD3 siRNA: 5′-[…]-3′ (SEQ ID NO:1); scramble siRNA:5′-[…]-3′ (SEQ ID NO:2). In brief, one day after the transduction of macrophages with LV, cells were transfected using Lipofectamine 2000 (Invitrogen) according to the manufacturer's instructions. Preparation of the oligonucleotide-Lipofectamine 2000 complexes was done as followed: 25 pmol siRNA oligonucleotide (stock: 20 μM) was diluted in 50 μl Opti-MEM I reduced serum medium. […]

PHD2 = PHD2 expression (qPCR) in bone marrow-derived monocyte/macrophage cultures upon cytokine stimulation; type: cell-based, mice
Method: Quantitative PCR Analysis: In order to investigate gene expression in pMØ, quantitative RT-PCR (qRT-PCR) was performed. After preparing pMØ, the cells were cultured in normoxic condition for twelve hours, and the RNA was extracted. To analyze the gene profile of adductor, gastrocnemius, and soleus muscle, tissues were collected at baseline or 24 hours/72 hours post-ischemia and RNA was extracted. Macrophages and ECs were freshly sorted from dissected adductors as described below and RNA was extracted. Quantitative RT-PCR was perfouned with commercially available or homemade primers and probes for the studied genes. The assay ID (Applied Biosystems, Foster City, Calif.) or the sequence of primers and probes (when homemade) are listed in Table 5. RNA levels of Tie-2, SDF1 and PDGFB after inhibition of NF-κB pathway were measured by qRT-PCR on pMØ exposed for twelve hours to 500 nM 6-amino-4-(4-phenoxyphenylethylamino)quinazoline. […] After 24 hours, cells were harvested for RNA extraction and cDNA preparation.

Tie2, PDGFB and SDF1 = assay: Expression of PDGFB, SDF1 and Tie2 (qPCR) in monocytes/macrophages upon angiopoietin-1; type: cell-based, mice; settings: monocytes/macrophages after angiopoietin-1 stimulation (50 and 250 ng/ml)
Method: Quantitative PCR Analysis: In order to investigate gene expression in pMØ, quantitative RT-PCR (qRT-PCR) was performed. After preparing pMØ, the cells were cultured in normoxic condition for twelve hours, and the RNA was extracted. To analyze the gene profile of adductor, gastrocnemius, and soleus muscle, tissues were collected at baseline or 24 hours/72 hours post-ischemia and RNA was extracted. Macrophages and ECs were freshly sorted from dissected adductors as described below and RNA was extracted. Quantitative RT-PCR was perfouned with commercially available or homemade primers and probes for the studied genes. The assay ID (Applied Biosystems, Foster City, Calif.) or the sequence of primers and probes (when homemade) are listed in Table 5. RNA levels of Tie-2, SDF1 and PDGFB after inhibition of NF-κB pathway were measured by qRT-PCR on pMØ exposed for twelve hours to 500 nM 6-amino-4-(4-phenoxyphenylethylamino)quinazoline. To evaluate PHD2 levels on monocyte/macrophage cultures, 2.5×10^5 bone marrow-derived monocytes/macrophages (see above) were seeded in a 24-well plate in DMEM 10% FBS and stimulated with 50 ng/ml angiopoietin-1 (Peprotech) or 50 ng/ml angiopoietin-2 (Prospec). After 24 hours, cells were harvested for RNA extraction and cDNA preparation.

With 4-hydroxytamoxifen the “expression of PDGFB, SDF1, and Tie2” value (PDGFB, SDF1, and Tie2) was “increased expression”.

With `Nc1nc(O)c2ncn(COC(CO)CO)c2n1` [GCV, ganciclovir] the “reduction of density of F4/80+Tie2+ cells” value (from here on “reduction”) (F4/80+Tie2+ cells; PHD2+/- Tie2:tk-BMT mice, 72 hours post-ischemia) was 68±5%, the “reduction” value (F4/80+Tie2+ cells; PHD2+/- Tie2:tk-BMT mice, baseline) was 58±11% and the “reduction” value (F4/80+Tie2+ cells; WT Tie2:tk-BMT mice, 72 hours post-ischemia) was 39±6%. For the same molecule, the “reduction” value (F4/80+Tie2+ cells; WT Tie2:tk-BMT mice, baseline) was 46±10%, the “ischemic protection (fiber necrosis)” value ([1]; 72 hours after ligation) was “abolished ischemic protection” and the “formation of secondary and tertiary collateral arteries” value ([1]; baseline, vs untreated group) was “completely prevented”.

In the case of `C[C@H]1C[C@@H]2[C@H]([C@@H](O)C[C@@]3(C)[C@H]2CC[C@]3(O)C(=O)CO)[C@@]2(C)C=CC(=O)C=C12` [methylprednisolone], the “mortality due to left ventricle rupture” value [2] is given as “drastically increased mortality”.

For TNF-α, the “TNF-α-induced NF-κB activation” value (NF-κB [3]) was “significantly stronger” and the NF-κB activity (NF-κB [4]) was “increases to the same level”.

B1: angiopoietin-1: Tie2 ligand cytokine (Peprotech) (protein, UniProt Q15389 16-498, looked up)
Angiopoietin-1: HIGCSNQRRSPENSGRRYNRIQHGQCAYTFILPEHDGNCRESTTDQYNTNALQRDAPHVEPDFSSQKLQHLEHVMENYTQWLQKLENYIVENMKSEMAQIQQNAVQNHTATMLEIGTSLLSQTAEQTRKLTDVETQVLNQTSRLEIQLLENSLSTYKLEKQLLQQTNEILKIHEKNSLLEHKILEMEGKHKEELDTLKEEKENLQGLVTRQTYIIQELEKQLNRATTNNSVLQKQQLELMDTVHNLVNLCTKEGVLLKGGKREEEKPFRDCADVYQAGFNKSGIYTIYINNMPEPKKVFCNMDVNGGGWTVIQHREDGSLDFQRGWKEYKMGFGNPSGEYWLGNEFIFAITSQRQYMLRIELMDWEGNRAYSQYDRFHIGNEKQNYRLYLKGHTGTAGKQSSLILHGADFSTKDADNDNCMCKCALMLTGGWWFDACGPSNLNGMFYTAGQNHGKLNGIKWHYFKGPSYSLRSTTMMIRPLDF
In the case of B1, the “PHD2 levels down-regulated, dose-dependent, up to” value (PHD2; WT monocytes/macrophages) is reported as 50 % of the basal levels, the “PHD2 down-modulation in monocytes/macrophages” value (PHD2; after angiopoietin-1 stimulation) is reported as 40% and the “expression of Tie2, PDGFB and SDF1” value (Tie2, PDGFB and SDF1) is reported as “increased expression”.
